In PubChem BioAssay AID248 (DTP/NCI, 2004):
Inconclusive results and toxic doses are left out. Rule as the data show it: active = T/C of 150% or more; inactive = T/C below 125%.

Tested on: L1210 leukemia ip in BDF1 mice, survival T/C
Experiment: NCI In Vivo Anticancer Drug Screen. Data for tumor model L1210 Leukemia (intraperitoneal) in B6D2F1 (BDF1) mice
Details: endpoint: mean survival time, higher = longer survival
Method in brief: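 Tumor cells were implanted, animals were treated, and survival was followed. The result divides the treated measurement by the vehicle-control measurement.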

[1] = dose: 100.0 mg/kg/injection, schedule: Q04DX003 (ip), vehicle: saline with Tween-80
[2] = dose: 200.0 mg/kg/injection, schedule: Q04DX003 (ip), vehicle: saline with Tween-80
[3] = dose: 400.0 mg/kg/injection, schedule: Q04DX003 (ip), vehicle: saline with Tween-80
[4] = dose: 75.0 mg/kg/injection, schedule: Q01DX001 (ip), vehicle: saline
[5] = dose: 150.0 mg/kg/injection, schedule: Q01DX001 (ip), vehicle: saline
[6] = dose: 100.0 mg/kg/injection, schedule: Q01DX009 (ip), vehicle: Klucel (hydroxypropylcellulose) (HPC)
[7] = dose: 100.0 mg/kg/injection, schedule: Q04DX003 (ip), vehicle: Klucel (hydroxypropylcellulose) (HPC)
[8] = dose: 200.0 mg/kg/injection, schedule: Q01DX009 (ip), vehicle: Klucel (hydroxypropylcellulose) (HPC)
[9] = dose: 200.0 mg/kg/injection, schedule: Q04DX003 (ip), vehicle: Klucel (hydroxypropylcellulose) (HPC)
[10] = dose: 400.0 mg/kg/injection, schedule: Q01DX009 (ip), vehicle: Klucel (hydroxypropylcellulose) (HPC)
[11] = dose: 400.0 mg/kg/injection, schedule: Q04DX003 (ip), vehicle: Klucel (hydroxypropylcellulose) (HPC)
[12] = dose: 5.0 mg/kg/injection, schedule: Q01DX001 (ip), vehicle: saline
[13] = dose: 10.0 mg/kg/injection, schedule: Q01DX001 (ip), vehicle: saline
[14] = dose: 20.0 mg/kg/injection, schedule: Q01DX001 (ip), vehicle: saline
[15] = dose: 40.0 mg/kg/injection, schedule: Q01DX001 (ip), vehicle: saline
[16] = dose: 100.0 mg/kg/injection, schedule: Q01DX001 (ip), vehicle: carboxymethylcellulose (CMC)
[17] = dose: 200.0 mg/kg/injection, schedule: Q01DX001 (ip), vehicle: carboxymethylcellulose (CMC)
[18] = dose: 400.0 mg/kg/injection, schedule: Q01DX001 (ip), vehicle: carboxymethylcellulose (CMC)

Measured: T/C

CCOC(=O)Cc1cc(OC)c(OC)c(OC)c1
inactive: dose: 100.0 mg/kg/injection, schedule: Q04DX003 (ip), vehicle: acetone 98 % of control | dose: 200.0 mg/kg/injection, schedule: Q04DX003 (ip), vehicle: acetone 94 % of control

N#CC(C#N)=NNc1ccc(S(=O)(=O)O)cc1
inactive: [1] 94 % of control | [2] 107 % of control | [3] 102 % of control

CNC(=O)O/N=C/c1ccc([N+](=O)[O-])cc1
inactive: [4] 94 % of control | [5] 100 % of control

COC1OCC(Cl)C(Cl)C1O (configuration not stated)
inactive: dose: 50.0 mg/kg/injection, schedule: Q04DX002 (ip), vehicle: saline 110 % of control | dose: 100.0 mg/kg/injection, schedule: Q04DX002 (ip), vehicle: saline 100 % of control | dose: 200.0 mg/kg/injection, schedule: Q04DX002 (ip), vehicle: saline 100 % of control

CC(=O)c1ccccc1I
inactive: [6] 94 % of control | [7] 100 % of control | [8] 97 % of control | [9] 94 % of control | [10] 103 % of control | [11] 95 % of control

CC1(C(Cl)Cl)C=CC=CC1=O (configuration not stated)
inactive: dose: 100.0 mg/kg/injection, schedule: Q01DX001 (ip), vehicle: Klucel (hydroxypropylcellulose) (HPC) 102 % of control | dose: 200.0 mg/kg/injection, schedule: Q01DX001 (ip), vehicle: Klucel (hydroxypropylcellulose) (HPC) 106 % of control | dose: 400.0 mg/kg/injection, schedule: Q01DX001 (ip), vehicle: Klucel (hydroxypropylcellulose) (HPC) 104 % of control

COC(=O)[C@]1(C)CCC[C@]2(C)c3cc(C(C)=O)c(C(C)C)cc3CC[C@@H]12
inactive: [1] 102 % of control | [2] 105 % of control | [3] 98 % of control

Cc1ncc(-c2ccc([N+](=O)[O-])cc2)o1
inactive: dose: 50.0 mg/kg/injection, schedule: Q04DX003 (ip), vehicle: Klucel (hydroxypropylcellulose) (HPC) 94 % of control | [7] 102 % of control | [9] 94 % of control

Cc1ccc2c(c1)CC(C)([CH2][Hg][Cl])O2 (configuration not stated)
inactive: dose: 3.0 mg/kg/injection, schedule: Q01DX009 (ip), vehicle: Klucel (hydroxypropylcellulose) (HPC) 91 % of control | dose: 3.0 mg/kg/injection, schedule: Q04DX003 (ip), vehicle: Klucel (hydroxypropylcellulose) (HPC) 90 % of control | dose: 6.0 mg/kg/injection, schedule: Q01DX009 (ip), vehicle: Klucel (hydroxypropylcellulose) (HPC) 91 % of control | dose: 6.0 mg/kg/injection, schedule: Q04DX003 (ip), vehicle: Klucel (hydroxypropylcellulose) (HPC) 87 % of control | dose: 12.0 mg/kg/injection, schedule: Q04DX003 (ip), vehicle: Klucel (hydroxypropylcellulose) (HPC) 92 % of control

O=C(N/N=C/c1cccc(F)c1)c1ccc(Cl)cc1
inactive: dose: 50.0 mg/kg/injection, schedule: Q01DX009 (ip), vehicle: saline with Tween-80 94 % of control | dose: 100.0 mg/kg/injection, schedule: Q01DX009 (ip), vehicle: saline with Tween-80 91 % of control | dose: 200.0 mg/kg/injection, schedule: Q01DX009 (ip), vehicle: saline with Tween-80 94 % of control

CCC(C)C1(C)C(=O)N(C)C(=S)N(C)C1=O (configuration not stated)
inactive: [12] 95 % of control | [13] 91 % of control | [14] 96 % of control | [15] 89 % of control

CCCCCCCCC(=O)NCc1ccc(OC)cc1
inactive: dose: 25.0 mg/kg/injection, schedule: Q01DX009 (ip), vehicle: other 93 % of control | dose: 50.0 mg/kg/injection, schedule: Q01DX009 (ip), vehicle: other 90 % of control | dose: 100.0 mg/kg/injection, schedule: Q01DX009 (ip), vehicle: other 100 % of control | dose: 100.0 mg/kg/injection, schedule: Q04DX003 (ip), vehicle: other 95 % of control | dose: 200.0 mg/kg/injection, schedule: Q01DX009 (ip), vehicle: other 92 % of control | dose: 200.0 mg/kg/injection, schedule: Q04DX003 (ip), vehicle: other 90 % of control | dose: 400.0 mg/kg/injection, schedule: Q01DX009 (ip), vehicle: other 91 % of control | dose: 400.0 mg/kg/injection, schedule: Q04DX003 (ip), vehicle: other 88 % of control

O=[N+]([O-])c1ccc2c(c1)Cc1cc(Br)ccc1-2
inactive: [6] 106 % of control | [7] 92 % of control | [8] 95 % of control | [9] 91 % of control | [10] 98 % of control | [11] 102 % of control

C\C(=C/C(=N/N=C/c1ccco1)c1ccccc1)c1ccccc1
inactive: [4] 103 % of control | [5] 104 % of control

OC(c1ccccc1)C(O)c1ccccc1 (configuration not stated)
inactive: [12] 103 % of control | [13] 100 % of control | dose: 12.5 mg/kg/injection, schedule: Q01DX009 (ip), vehicle: Klucel (hydroxypropylcellulose) (HPC) 93 % of control | [14] 97 % of control | dose: 25.0 mg/kg/injection, schedule: Q01DX009 (ip), vehicle: Klucel (hydroxypropylcellulose) (HPC) 92 % of control | [15] 92 % of control | dose: 50.0 mg/kg/injection, schedule: Q01DX009 (ip), vehicle: Klucel (hydroxypropylcellulose) (HPC) 93 % of control | dose: 80.0 mg/kg/injection, schedule: Q01DX001 (ip), vehicle: saline 98 % of control

CC(=O)Nc1c(Br)cc2c(c1Br)Cc1cc(Br)ccc1-2
inactive: [16] 111 % of control | [17] 97 % of control | [18] 108 % of control

OC1CC2CC1C=C2c1ccccc1 (configuration not stated)
inactive: [1] 102 % of control | [2] 86 % of control | [3] 91 % of control

CCCCC(CCC)(CCN)CCCC
inactive: dose: 1.0 mg/kg/injection, schedule: Q01DX009 (ip), vehicle: Klucel (hydroxypropylcellulose) (HPC) 100 % of control | dose: 2.0 mg/kg/injection, schedule: Q01DX009 (ip), vehicle: Klucel (hydroxypropylcellulose) (HPC) 100 % of control | dose: 2.0 mg/kg/injection, schedule: Q04DX003 (ip), vehicle: Klucel (hydroxypropylcellulose) (HPC) 98 % of control | dose: 4.0 mg/kg/injection, schedule: Q01DX009 (ip), vehicle: Klucel (hydroxypropylcellulose) (HPC) 101 % of control | dose: 4.0 mg/kg/injection, schedule: Q04DX003 (ip), vehicle: Klucel (hydroxypropylcellulose) (HPC) 98 % of control | dose: 8.0 mg/kg/injection, schedule: Q01DX009 (ip), vehicle: Klucel (hydroxypropylcellulose) (HPC) 100 % of control | dose: 8.0 mg/kg/injection, schedule: Q04DX003 (ip), vehicle: Klucel (hydroxypropylcellulose) (HPC) 93 % of control | dose: 16.0 mg/kg/injection, schedule: Q04DX003 (ip), vehicle: Klucel (hydroxypropylcellulose) (HPC) 96 % of control | dose: 25.0 mg/kg/injection, schedule: Q01DX001 (ip), vehicle: carboxymethylcellulose (CMC) 95 % of control | [16] 93 % of control

CC(C#N)c1cccc(C(=O)O)c1 (configuration not stated)
inactive: [16] 105 % of control | [17] 105 % of control | [18] 96 % of control

CC1(C)C2CCC13CC(=O)OC3C2 (configuration not stated)
inactive: dose: 0.78 mg/kg/injection, schedule: Q01DX009 (ip), vehicle: saline 105 % of control | dose: 0.78 mg/kg/injection, schedule: Q04DX003 (ip), vehicle: acetone 101 % of control | dose: 1.56 mg/kg/injection, schedule: Q01DX009 (ip), vehicle: saline 100 % of control | dose: 1.56 mg/kg/injection, schedule: Q04DX003 (ip), vehicle: acetone 92 % of control | dose: 3.12 mg/kg/injection, schedule: Q01DX009 (ip), vehicle: saline 102 % of control | dose: 3.12 mg/kg/injection, schedule: Q04DX003 (ip), vehicle: acetone 98 % of control | dose: 4.6 mg/kg/injection, schedule: Q01DX009 (ip), vehicle: saline 89 % of control | dose: 7.0 mg/kg/injection, schedule: Q01DX009 (ip), vehicle: saline 91 % of control | dose: 10.5 mg/kg/injection, schedule: Q01DX009 (ip), vehicle: saline 104 % of control | dose: 15.0 mg/kg/injection, schedule: Q01DX009 (ip), vehicle: acetone 92 % of control

CC(O)CNC1CCC(C)CC1 (configuration not stated)
inactive: dose: 75.0 mg/kg/injection, schedule: Q01DX001 (ip), vehicle: acid diluted with saline 96 % of control | dose: 150.0 mg/kg/injection, schedule: Q01DX001 (ip), vehicle: acid diluted with saline 100 % of control
